According to US20230365537A1, “POLO LIKE KINASE 4 INHIBITORS” (ORIC Pharmaceuticals, Inc., priority 2021, published 2023):

What was measured:
human recombinant PLK4 = human recombinant PLK4 (Homo sapiens (Human), UniProt O00444); experiment: PLK4 Biochemical Assay (ADP-Glo); conditions: 0.5 nM PLK4, 8.0 µM ATP, 4.7 µM MBP, 6 hours at RT
How it was run: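 Recombinant human PLK4 (added at 1.0 nM) was preincubated 15 min at RT with compound in 50 mM HEPES pH 7.5, 10 mM MgCl2, 1 mM EGTA, 1 mM DTT, 0.01% Brij-35, 0.01% BSA. ADP formed was detected by ADP-Glo luminescence (40 min ATP depletion, 30 min detection). IC50 came from a four-parameter fit.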

[1] = target: human recombinant Aurora A (Homo sapiens (Human), UniProt O14965); experiment: Aurora A Kinase Biochemical Assay (ADP-Glo); conditions: ratio of Aurora A IC50 to PLK4 IC50 (selectivity)
human recombinant Aurora A, sequence (O14965 whole entry): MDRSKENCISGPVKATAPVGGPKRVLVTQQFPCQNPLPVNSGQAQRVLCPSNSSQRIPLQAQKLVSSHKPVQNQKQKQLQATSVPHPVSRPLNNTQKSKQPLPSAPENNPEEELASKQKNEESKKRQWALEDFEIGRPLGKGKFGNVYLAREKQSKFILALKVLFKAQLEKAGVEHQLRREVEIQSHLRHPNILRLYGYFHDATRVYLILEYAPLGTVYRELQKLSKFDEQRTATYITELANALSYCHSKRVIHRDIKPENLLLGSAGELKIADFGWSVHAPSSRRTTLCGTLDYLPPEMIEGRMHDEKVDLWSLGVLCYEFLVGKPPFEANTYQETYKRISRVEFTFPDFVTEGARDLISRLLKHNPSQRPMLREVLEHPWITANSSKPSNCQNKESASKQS

[2] = target: human recombinant Aurora B (Homo sapiens (Human), UniProt Q96GD4); experiment: Aurora B Kinase Biochemical Assay (ADP-Glo); conditions: ratio of Aurora B IC50 to PLK4 IC50 (selectivity)
human recombinant Aurora B, sequence (Q96GD4 whole entry): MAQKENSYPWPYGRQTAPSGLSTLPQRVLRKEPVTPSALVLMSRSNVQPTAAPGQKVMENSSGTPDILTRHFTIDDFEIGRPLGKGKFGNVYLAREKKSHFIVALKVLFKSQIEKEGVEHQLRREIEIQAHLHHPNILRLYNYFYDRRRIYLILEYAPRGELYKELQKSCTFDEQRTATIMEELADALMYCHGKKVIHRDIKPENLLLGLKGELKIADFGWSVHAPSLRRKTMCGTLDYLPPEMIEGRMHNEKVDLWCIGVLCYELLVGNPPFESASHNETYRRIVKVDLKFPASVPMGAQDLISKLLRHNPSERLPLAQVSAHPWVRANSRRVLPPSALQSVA
How it was run: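 Recombinant human Aurora B (20 nM in pH 7.5 HEPES buffer with MgCl2, EGTA, DTT, Brij-35, BSA) preincubated with compound 15 min at RT. ADP formed quantified by ADP-Glo luminescence after ATP depletion (40 min) and detection (30 min). IC50 from four-parameter non-linear regression.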

CHP-134 cells = experiment: CHP134 CellTiter-Glo (CTG) Assay; type: cell-based; conditions: Homo sapiens, CHP-134, 120 h, 5 days, viable cells by CellTiter-Glo
How it was run: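 CHP-134 cells seeded at 200 cells/well for 16 h, then given nine 1:3 serial dilutions in quadruplicate at 37° C, 5% CO2. Viable cells measured by CellTiter-Glo luminescence after 5 days; IC50 calculated from curves.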

human recombinant PLK4, sequence (O00444 whole entry): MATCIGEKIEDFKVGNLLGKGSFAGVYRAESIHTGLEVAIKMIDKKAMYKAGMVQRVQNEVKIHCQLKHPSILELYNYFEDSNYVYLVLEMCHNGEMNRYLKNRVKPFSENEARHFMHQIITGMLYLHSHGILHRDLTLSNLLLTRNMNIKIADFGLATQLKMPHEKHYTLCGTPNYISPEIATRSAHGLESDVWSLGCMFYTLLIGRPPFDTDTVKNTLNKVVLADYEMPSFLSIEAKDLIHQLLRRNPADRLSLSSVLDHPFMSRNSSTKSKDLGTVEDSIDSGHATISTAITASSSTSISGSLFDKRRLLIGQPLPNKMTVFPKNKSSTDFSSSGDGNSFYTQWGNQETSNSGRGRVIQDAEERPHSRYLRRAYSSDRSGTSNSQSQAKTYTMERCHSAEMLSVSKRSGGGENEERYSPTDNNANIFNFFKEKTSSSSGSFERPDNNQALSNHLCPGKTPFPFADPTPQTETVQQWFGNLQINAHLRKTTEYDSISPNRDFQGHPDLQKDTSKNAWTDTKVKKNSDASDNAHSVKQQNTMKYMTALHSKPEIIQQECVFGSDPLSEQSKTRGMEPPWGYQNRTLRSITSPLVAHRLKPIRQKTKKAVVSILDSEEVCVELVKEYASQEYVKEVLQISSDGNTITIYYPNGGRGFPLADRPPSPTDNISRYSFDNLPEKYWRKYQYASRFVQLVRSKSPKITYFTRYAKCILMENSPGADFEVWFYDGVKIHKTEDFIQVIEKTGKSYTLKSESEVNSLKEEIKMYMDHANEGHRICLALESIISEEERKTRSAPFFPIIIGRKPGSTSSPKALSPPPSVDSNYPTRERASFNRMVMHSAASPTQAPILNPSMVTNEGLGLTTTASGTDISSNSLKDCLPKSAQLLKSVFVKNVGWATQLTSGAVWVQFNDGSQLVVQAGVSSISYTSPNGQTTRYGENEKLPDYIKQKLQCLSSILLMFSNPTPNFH

SMILES | IC50 (human recombinant PLK4) [nM] | [Aurora A IC50 (nM)]/[PLK4 IC50 (nM)] [1] | [Aurora B IC50 (nM)]/[PLK4 IC50 (nM)] [2] | IC50 (CHP-134 cells) [nM]
CCOc1cnc(C)nc1Nc1n[nH]c2cc([C@@H]3C[C@@]34C(=O)Nc3ccc(OC)cc34)ccc12 [Example 134, (1R,2S)-2-{3-[(5-ethoxy-2-methylpyrimidin-4-yl)amino]-1-indazol-6-yl}-5′-methoxyspiro[cyclopropane-1,3′-indol]-2′(1′H)-one] | 1.79 | 8849.1620 | 969.2737 | 782
COc1ccc2c(c1)[C@]1(C[C@H]1c1ccc3c(Nc4nc(C)ncc4C4CC4)n[nH]c3c1)C(=O)N2 [Example 140, (1R,2S)-2-{3-[(5-cyclopropyl-2-methylpyrimidin-4-yl)amino]-1H-indazol-6-yl}-5′-methoxyspiro[cyclopropane-1,3′-indol]-2′(1′H)-one] | 16.6 | 814 | 537 | 7760
COc1ccc2c(c1)[C@]1(C[C@H]1c1cc3[nH]nc(Nc4nc(C)ncc4OC)c3cc1F)C(=O)N2 [Example 144, (1R,2R)-2-{5-fluoro-3-[(5-methoxy-2-methylpyrimidin-4-yl)amino]-1H-indazol-6-yl}-5′-methoxyspiro[cyclopropane-1,3′-indol]-2′(1′H)-one] | 1.41 | 852.7955 | 61.4367 | 750
COc1ccc2c(c1)[C@]1(C[C@H]1c1ccc3c(Nc4cc(C)nnc4OC)n[nH]c3c1)C(=O)N2 [Example 145, (1R,2S)-5′-methoxy-2-{3-[(3-methoxy-6-methylpyridazin-4-yl)amino]-1H-indazol-6-yl}spiro[cyclopropane-1,3′-indol]-2′(1′H)-one] | 5.82 | 1001.5467 | 280.8043 | 2920
COc1ccc2c(c1)[C@]1(C[C@H]1c1ccc3c(Nc4nc(C)ncc4OCC4CC4)n[nH]c3c1)C(=O)N2 [Example 146, (1R,2S)-2-(3-{[5-(cyclopropylmethoxy)-2-methylpyrimidin-4-yl]amino}-1H-indazol-6-yl)-5′-methoxyspiro[cyclopropane-1,3′-indol]-2′(1′H)-one] | 1.49 | 3512.4078 | 745.8082 | 655
COc1ccc2c(c1)[C@]1(C[C@H]1c1ccc3c(Nc4nc(C)ncc4OCC(F)F)n[nH]c3c1)C(=O)N2 [Example 147, (1R,2S)-2-(3-{[5-(2,2-difluoroethoxy)-2-methylpyrimidin-4-yl]amino}-1H-indazol-6-yl)-5′-methoxyspiro[cyclopropane-1,3′-indol]-2′(1′H)-one] | 4.22 | 2292.2093 | 483.0689 | 1300
COc1ccc2c(c1)[C@]1(C[C@H]1c1ccc3c(Nc4cc(C)ccc4OC)n[nH]c3c1)C(=O)N2 [Example 148, (1R,2S)-5′-methoxy-2-[3-(2-methoxy-5-methylanilino)-1H-indazol-6-yl]spiro[cyclopropane-1,3′-indol]-2′(1′H)-one] | 6.87 | 397.3799 | 338.8646 | 3570
COc1ccc2c(c1)[C@]1(C[C@H]1c1ccc3c(Nc4nc(C)ncc4OCC(F)(F)F)n[nH]c3c1)C(=O)N2 [Example 149, (1R,2S)-5′-methoxy-2-(3-{[2-methyl-5-(2,2,2-trifluoroethoxy)pyrimidin-4-yl]amino}-1H-indazol-6-yl)spiro[cyclopropane-1,3′-indol]-2′(1′H)-one] | 3.15 | 3193.7837 | 879.4799 | 844
COc1ccc2c(c1)[C@]1(C[C@H]1c1ccc3c(Nc4ccc(C)nc4OC)n[nH]c3c1)C(=O)N2 [Example 150, (1R,2S)-5′-methoxy-2-{3-[(2-methoxy-6-methylpyridin-3-yl)amino]-1H-indazol-6-yl}spiro[cyclopropane-1,3′-indol]-2′(1′H)-one] | 8.13 | 720.7185 | 366.7569 | 3160
COc1ccc2c(c1)[C@]1(C[C@H]1c1ccc3c(Nc4nc(C)nc5c4OCC5)n[nH]c3c1)C(=O)N2 [Example 153, (1R,2S)-5′-methoxy-2-{3-[(2-methyl-6,7-dihydrofuro[3,2-d]pyrimidin-4-yl)amino]-1H-indazol-6-yl}spiro[cyclopropane-1,3′-indol]-2′(1′H)-one] | 1.91 | 1254.4596 | 123.6097 | 876
COc1ccc2c(c1)[C@]1(C[C@H]1c1ccc3c(Nc4nc(C5CCOCC5)ncc4OC)n[nH]c3c1)C(=O)N2 [Example 154, (1R,2S)-5′-methoxy-2-(3-{[5-methoxy-2-(oxan-4-yl)pyrimidin-4-yl]amino}-1H-indazol-6-yl)spiro[cyclopropane-1,3′-indol]-2′(1′H)-one] | 0.976 | 1373.9754 | 655.2254 | 260
COc1ccc2c(c1)[C@]1(C[C@H]1c1ccc3c(Nc4nc(SC)ncc4OC)n[nH]c3c1)C(=O)N2 [Example 155, (1R,2S)-5′-methoxy-2-(3-{[5-methoxy-2-(methylsulfanyl)pyrimidin-4-yl]amino}-1H-indazol-6-yl)spiro[cyclopropane-1,3′-indol]-2′(1′H)-one] | 1.03 | 305.4106 | 68.0773 | 192
COc1ccc2c(c1)[C@]1(C[C@H]1c1ccc3c(Nc4nc(N5CCC5)ncc4OC)n[nH]c3c1)C(=O)N2 [Example 157, (1R,2S)-2-(3-{[2-(azetidin-1-yl)-5-methoxypyrimidin-4-yl]amino}-1H-indazol-6-yl)-5′-methoxyspiro[cyclopropane-1,3′-indol]-2′(1′H)-one] | 1.95 | 510.6317 | 303.9548 | 288
COc1ccc2c(c1)[C@]1(C[C@H]1c1ccc3c(Nc4nc(C)nc5c4CCC5)n[nH]c3c1)C(=O)N2 [Example 159, (1R,2S)-5′-methoxy-2-{3-[(2-methyl-6,7-dihydro-5H-cyclopenta[d]pyrimidin-4-yl)amino]-1H-indazol-6-yl}spiro[cyclopropane-1,3′-indol]-2′(1′H)-one] | 1.96 | 309.7350 | 58.0530 | 1300
CCc1ncc(OC)c(Nc2n[nH]c3cc([C@@H]4C[C@@]45C(=O)Nc4ccc(OC)cc45)ccc23)n1 [Example 160, (1R,2S)-2-{3-[(2-ethyl-5-methoxypyrimidin-4-yl)amino]-1H-indazol-6-yl}-5′-methoxyspiro[cyclopropane-1,3′-indol]-2′(1′H)-one] | 1.93 | 545.5487 | 149.5859 | 310
COc1ccc2c(c1)[C@]1(C[C@H]1c1ccc3c(Nc4cc5cccnc5cc4OC)n[nH]c3c1)C(=O)N2 [Example 161, (1R,2S)-5′-methoxy-2-{3-[(7-methoxyquinolin-6-yl)amino]-1H-indazol-6-yl}spiro[cyclopropane-1,3′-indol]-2′(1′1H)-one] | 2.21 | 291.4932 | 258.4163 | 352
COc1ccc2c(c1)[C@]1(C[C@H]1c1ccc3c(Nc4nc5ccccc5cc4OC)n[nH]c3c1)C(=O)N2 [Example 163, (1R,2S)-5′-methoxy-2-{3-[(3-methoxyquinolin-2-yl)amino]-1H-indazol-6-yl}spiro[cyclopropane-1,3′-indol]-2′(1′H)-one] | 1.52 | 2164.0420 | 389.4357 | 226
COc1cnc(OC)c(Nc2n[nH]c3cc([C@@H]4C[C@@]45C(=O)Nc4ccc(OC)cc45)ccc23)c1 [Example 164, (1R,2S)-2-{3-[(2,5-dimethoxypyridin-3-yl)amino]-1H-indazol-6-yl}-5′-methoxyspiro[cyclopropane-1,3′-indol]-2′(1′H)-one] | 6.28 | 397.0049 | 161.2235 | 1640
COc1ccc2c(c1)[C@]1(C[C@H]1c1ccc3c(Nc4nc(Cl)nc5ccoc45)n[nH]c3c1)C(=O)N2 [Example 165, (1R,2S)-2-{3-[(2-chlorofuro[3,2-d]pyrimidin-4-yl)amino]-1H-indazol-6-yl}-5′-methoxyspiro[cyclopropane-1,3′-indol]-2′(1′H)-one] | 4.68 | 111.2559 | 76.9329 | 1060
